# Values quoted from earlier work in EP0640130B1, “CHIMERIC M[…] ANALOGUES AND METHODS OF USE THEREOF” (CREATIVE BIOMOLECULES, INC., priority 1992, dated 1993).
# Target: 26-10 sFv (anti-digoxin single-chain Fv)
smiles,measurement,value
C[C@@H]1O[C@@H](O[C@H]2C[C@@H](O)[C@]3(CO)[C@H]4[C@H](O)C[C@]5(C)[C@@H](C6=CC(=O)OC6)CC[C@]5(O)[C@@H]4CC[C@]3(O)C2)[C@H](O)[C@H](O)[C@H]1O [Ouabain],Ka for association with 26-10 sFv,about 10^7 M^-1
